ChEMBL document CHEMBL1201862, “PubChem BioAssay data set” (2004)
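Five compound concentrations were applied to cells in 96-well plates for 48 hours; endpoints were derived by simple linear interpolation of the resulting dose-response curve. GI50 marks 50% less growth.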 Calls of active or inactive are those of the source. Rule as the data show it: active = GI50 up to about 1.1 µM and inactive = higher.

What was measured:
Test in all cases: NCI anticancer screen, dose series, 48 h
[1] = test system: MDA-MB-435
[2] = test system: HT-29
[3] = test system: EKVX
[4] = test system: MDA-N
[5] = test system: SN12C
[6] = test system: HOP-92
[7] = test system: UACC-257
[8] = test system: SK-MEL-5
[9] = test system: Hs-578T
[10] = test system: SNB-19
[11] = test system: A549
[12] = test system: HL-60
[13] = test system: UO-31
[14] = test system: SNB-75
[15] = test system: SK-MEL-28
[16] = test system: NCI-H23
[17] = test system: IGROV-1
[18] = test system: COLO 205
[19] = test system: Malme-3M
[20] = test system: SF-539

SMILES | GI50 [1] | GI50 [2] | GI50 [3] | GI50 [4] | GI50 [5] | GI50 [6] | GI50 [7] | GI50 [8] | GI50 [9] | GI50 [10] | GI50 [11] | GI50 [12] | GI50 [13] | GI50 [14] | GI50 [15] | GI50 [16] | GI50 [17] | GI50 [18] | GI50 [19] | GI50 [20]
CCC(=O)COc1ccc(NC(NC(=O)C(C(F)(F)F)C(F)(F)F)(C(F)(F)F)C(F)(F)F)cc1 | 42.7 µM (inactive) | 22.7 µM (inactive) | 49.2 µM (inactive) | 28.3 µM (inactive) | > 10 µM (inactive) | 39.1 µM (inactive) | 53.7 µM (inactive) | 42.3 µM (inactive) | 31 µM (inactive) | 46.9 µM (inactive) | 54.5 µM (inactive) | 22.2 µM (inactive) | 39.8 µM (inactive) | 23.7 µM (inactive) | 59.4 µM (inactive) | 36.5 µM (inactive) | 19.4 µM (inactive) | 21.2 µM (inactive) | 27 µM (inactive) | 25.3 µM (inactive)
O=[N+]([O-])c1ccc2c(c1)/C(=N/N=C1c3ccccc3Cc3ccccc31)c1cc([N+](=O)[O-])cc([N+](=O)[O-])c1-2 | 1.79 µM (inactive) | 1.97 µM (inactive) | 5.12 µM (inactive) | 3.36 µM (inactive) | 1.67 µM (inactive) | 2.17 µM (inactive) | 2.08 µM (inactive) | 4.42 µM (inactive) | 2.86 µM (inactive) | 7.33 µM (inactive) | 9.4 µM (inactive) | 2.26 µM (inactive) | 2.05 µM (inactive) | 2.81 µM (inactive) | 3.45 µM (inactive) | 1.96 µM (inactive) | 1.55 µM (inactive) | 3.21 µM (inactive) | 2.79 µM (inactive) | 2.99 µM (inactive)
Cc1csc2nc(-c3cccc([N+](=O)[O-])c3)c(/C=N/N=C(N)N)n12 | 1.66 µM (inactive) | 1.81 µM (inactive) | 1.55 µM (inactive) | 1.67 µM (inactive) | 1.69 µM (inactive) | 0.0968 µM (active) | 1.78 µM (inactive) | 1.55 µM (inactive) | 2.18 µM (inactive) | 1.9 µM (inactive) | 1.72 µM (inactive) | 1.25 µM (inactive) | 1.39 µM (inactive) | 1.75 µM (inactive) | 1.71 µM (inactive) | 1.71 µM (inactive) | 1.81 µM (inactive) | 1.78 µM (inactive) | 1.72 µM (inactive) | 2.29 µM (inactive)
COc1ccc(-c2sc(Br)c3c2C(=O)C2OC(=O)NC32)cc1OC (stereo unspecified) | > 100 µM (inactive) | > 100 µM (inactive) | > 100 µM (inactive) | > 100 µM (inactive) | > 100 µM (inactive) | > 100 µM (inactive) | > 100 µM (inactive) | > 100 µM (inactive) | > 100 µM (inactive) | > 100 µM (inactive) | > 100 µM (inactive) | > 100 µM (inactive) | > 100 µM (inactive) | > 100 µM (inactive) | – | > 100 µM (inactive) | > 100 µM (inactive) | > 100 µM (inactive) | > 100 µM (inactive) | > 100 µM (inactive)
O=C1c2ccccc2-c2nnc3c(c21)Cc1ccccc1C3 | > 10 µM (inactive) | > 10 µM (inactive) | > 10 µM (inactive) | > 10 µM (inactive) | > 10 µM (inactive) | > 10 µM (inactive) | – | > 10 µM (inactive) | > 10 µM (inactive) | > 10 µM (inactive) | > 10 µM (inactive) | > 10 µM (inactive) | > 10 µM (inactive) | 2.43 µM (inactive) | > 10 µM (inactive) | > 10 µM (inactive) | > 10 µM (inactive) | > 10 µM (inactive) | > 10 µM (inactive) | > 10 µM (inactive)
c1ccc2cc3c(cc2c1)nc1ccccn13 | > 100 µM (inactive) | – | > 100 µM (inactive) | > 100 µM (inactive) | > 100 µM (inactive) | > 100 µM (inactive) | > 100 µM (inactive) | > 100 µM (inactive) | 21 µM (inactive) | > 100 µM (inactive) | > 100 µM (inactive) | > 100 µM (inactive) | > 100 µM (inactive) | > 100 µM (inactive) | > 100 µM (inactive) | > 100 µM (inactive) | > 100 µM (inactive) | > 100 µM (inactive) | > 100 µM (inactive) | > 100 µM (inactive)
CCCCc1ccc(Nc2nc3ncnc-3c[nH]2)cc1 | 33.7 µM (inactive) | 21 µM (inactive) | 25.8 µM (inactive) | 32.8 µM (inactive) | 18.8 µM (inactive) | 21.8 µM (inactive) | 21.2 µM (inactive) | 16.6 µM (inactive) | 5.52 µM (inactive) | 18.2 µM (inactive) | 21.7 µM (inactive) | 38.5 µM (inactive) | 12.5 µM (inactive) | 14.6 µM (inactive) | – | 18.2 µM (inactive) | 17.3 µM (inactive) | 16.7 µM (inactive) | 19.6 µM (inactive) | 26.7 µM (inactive)
